# Measurements taken from PMC4175417 (Journal of clinical pharmacology, 2013).
# Like-named read-outs stand apart in the source and are kept apart here. Marks after values point to notes of the source that are not given here.
# How the values were obtained:
# [1] = Axitinib exposure; type: in vivo; conditions: human, plasma, oral
# [2] = In-clinic diastolic blood pressure in mRCC patients of the PK/PD analysis; type: in vivo, human; conditions: maximum post-baseline dBP within the first 8 weeks; 168 mRCC patients
# [3] = tested on: mRCC patients; assay: Efficacy in mRCC studies; type: in vivo, human
# [4] = cited from earlier work
# [5] = tested on: mRCC; conditions: second-line therapy for mRCC; cited from earlier work
# [6] = tested on: mRCC patients; conditions: cited from earlier work
# [7] = clinical; conditions: human, in vivo
# [8] = cited from earlier work; remark: listed apart in the source
# [9] = corrected serum calcium <10 mg/dL
# [10] = corrected serum calcium ≥10 mg/dL
# [11] = corrected serum calcium ≥10 vs <10 mg/dL
# [12] = hemoglobin >13 g/dL for male, >11.5 for female
# [13] = hemoglobin ≤13 g/dL for male, ≤11.5 for female
# [14] = per 10 mm Hg increase of dBP, adjusted for prognostic factors
# [15] = per 100 hxng/mL increase of AUC, adjusted for prognostic factors
# [16] = sorafenib- vs cytokine-refractory
smiles,measurement,setting,value
CNC(=O)c1ccccc1Sc1ccc2c(/C=C/c3ccccn3)n[nH]c2c1 [axitinib],AUC,[1],375 ng·h/mL
same,"dBP, median (range)",[2],90 (58–116) ^e mm Hg
same,mOS,[3]; AUC <300 hxng/mL,15.8 months
same,mPFS,[3]; AUC <300 hxng/mL,7.4 months
same,mOS,[3]; AUC ≥300 hxng/mL,37.4 months
same,mPFS,[3]; AUC ≥300 hxng/mL,13.8 months
same,"OS HR (95% CI), multivariate",[3]; ECOG PS,"2.37 (1.50, 3.72)"
same,"PFS HR (95% CI), multivariate",[3]; ECOG PS,"1.82 (1.17, 2.83)"
same,mOS,[3]; ECOG PS 0,41.6 months
same,mPFS,[3]; ECOG PS 0,13.7 months
same,mOS,[3]; ECOG PS 1,10.7 months
same,mPFS,[3]; ECOG PS 1,7.13 months
same,"OS HR (95% CI), univariate",[3]; ECOG PS 1 vs 0,"3.63 (2.40, 5.48)"
same,"PFS HR (95% CI), univariate",[3]; ECOG PS 1 vs 0,"2.17 (1.46, 3.23)"
same,"OS HR (95% CI), univariate","[3]; age, continuous","0.992 (0.972, 1.01)"
same,"PFS HR (95% CI), univariate","[3]; age, continuous","1.006 (0.986, 1.026)"
same,mOS,[3]; [9],27.7 months
same,mPFS,[3]; [9],11.1 months
same,mOS,[3]; [10],16.4 months
same,mPFS,[3]; [10],8.38 months
same,"OS HR (95% CI), univariate",[3]; [11],"1.74 (1.03, 2.96)"
same,"PFS HR (95% CI), univariate",[3]; [11],"1.21 (0.688, 2.13)"
same,mOS,[3]; cytokine-refractory,30.0 months
same,mPFS,[3]; cytokine-refractory,13.0 months
same,mOS,[3]; dBP <90 mm Hg,18.5 months
same,mPFS,[3]; dBP <90 mm Hg,7.86 months
same,mOS,[3]; dBP ≥90 mm Hg,29.5 months
same,mPFS,[3]; dBP ≥90 mm Hg,14.6 months
same,mOS,[3]; female,19.6 months
same,mPFS,[3]; female,7.63 months
same,"OS HR (95% CI), univariate",[3]; female vs male,"1.26 (0.799, 1.97)"
same,"PFS HR (95% CI), univariate",[3]; female vs male,"1.63 (1.09, 2.46)"
same,Increase in the probability of achieving a partial response,"[3]; for every 100 hxng/mL increase in AUC, logistic regression",1.5 fold
same,"PFS HR (95% CI), multivariate",[3]; gender,"1.72 (1.14, 2.60)"
same,"OS HR (95% CI), multivariate",[3]; hemoglobin,"0.348 (0.213, 0.567)"
same,"PFS HR (95% CI), multivariate",[3]; hemoglobin,"0.601 (0.393, 0.921)"
same,mOS,[3]; [12],43.3 months
same,mPFS,[3]; [12],14.6 months
same,mOS,[3]; [13],15.9 months
same,mPFS,[3]; [13],7.69 months
same,"OS HR (95% CI), univariate",[3]; high vs low hemoglobin,"0.282 (0.179, 0.443)"
same,"PFS HR (95% CI), univariate",[3]; high vs low hemoglobin,"0.537 (0.364, 0.792)"
same,mOS,[3]; male,27.7 months
same,mPFS,[3]; male,13.0 months
same,"OS HR (95% CI), multivariate",[3]; [14],"0.739 (0.586, 0.931)"
same,"PFS HR (95% CI), multivariate",[3]; [14],"0.660 (0.519, 0.839)"
same,"OS HR (95% CI), multivariate",[3]; [15],"0.866 (0.773, 0.968)"
same,"PFS HR (95% CI), multivariate",[3]; [15],"0.909 (0.832, 0.993)"
same,"OS HR (95% CI), multivariate",[3]; prior therapy,"2.12 (1.35, 3.34)"
same,"PFS HR (95% CI), multivariate",[3]; prior therapy,"1.60 (1.04, 2.47)"
same,"OS HR (95% CI), univariate",[3]; [16],"2.15 (1.39, 3.34)"
same,"PFS HR (95% CI), univariate",[3]; [16],"1.55 (1.02, 2.34)"
same,mOS,[3]; sorafenib-refractory,15.8 months
same,mPFS,[3]; sorafenib-refractory,7.63 months
same,Effect of food on oral bioavailability,Form XLI,negligible effect
same,Vp (volume of distribution in peripheral compartment),final model,393 L
same,Age >60-yr effect on CL,"human, in vivo",−0.213
same,F with Form XLI,"human, in vivo",g F with Form XLI is estimated to be 0.402; calculated as 0.457 × (1 – 0.121). Note that there was no observed food effect with Form XLI.
same,"F, fasting with Form IV","human, in vivo","f For fasting effect with Form IV, F is estimated to be 0.608; calculated as 0.457 × (1 + 0.33)."
same,Fasting effect on ka,"human, in vivo",1.97
same,"Fasting on F, Form IV","human, in vivo",0.330
same,Japanese ethnicity effect on CL,"human, in vivo",−0.249
same,Q (apparent inter-compartmental clearance),"human, in vivo",4.00 (86.8) ^d L/h
same,Smoking status on CL,"human, in vivo",1.02
same,ka (first-order absorption rate constant): fed,"human, in vivo",0.482 (77) hour^–1
same,ka higher in the fasted state compared with the fed state,"human, in vivo",197%
same,"ka, fasting","human, in vivo","e For fasting effect, ka is estimated to be 1.43 hour^−1; calculated as 0.482 hour^−1 × (1 + 1.97)."
same,tlag (absorption lag time),"human, in vivo",0.454 h
same,Increase of oral bioavailability in the fasted state compared with the fed state,"human, in vivo, po",33%
same,Exposure compared with normal hepatic function,[4]; mild hepatic impairment,did not alter axitinib exposures
same,Higher exposure compared with normal hepatic function,[4]; moderate hepatic impairment,2 fold
same,Efficacy versus sorafenib,[5],superior efficacy over sorafenib
same,RECIST-based overall response rate,"[6]; study 2, cytokine-refractory mRCC",44%
same,RECIST-based overall response rate,"[6]; study 4, sorafenib-refractory mRCC",23%
same,RECIST-based overall response rate,"[6]; study 5, Japanese cytokine-refractory mRCC",50%
same,Vd,[7],47.3 L
same,clearance,[7],243 mL/min
same,Time to peak plasma concentration,"[8]; oral administration, fed state",2 to 6 h
same,Maximum tolerated dose (MTD),"[8]; study 1, patients with solid tumors",5 mg bid
